# Experimental data reported in US20250049970A1, “DLL3 TARGETING PEPTIDES AND CONSTRUCTS THEREOF” (MARIANA ONCOLOGY INC., priority 2023, published 2025).
# *1 amine or outer side, *2 acyl side, *3 side chain or, on linkers, in order; H or OH if unused. Where a SMILES comes first, the peptide text is derived from it. Bridges are numbered along the chain shown (N, C = ends). [ ]: non-standard residue; d: D form. The star is where a group is joined. ξ: configuration not given here. X7 = O=C(O)CN1CCN(CC(=O)O)CCN(CC(=O)N[C@H]2CC[C@H](CC(=O)*)CC2)CCN(CC(=O)O)CC1; X10 = O=C(O)CN1CCN(CC(=O)O)CCN(CC(=O)NC2CCC(CC(=O)*)CC2)CCN(CC(=O)O)CC1; Ala(piperidin-4-yl) = O=C([C@H](CC1CCN([*:3])CC1)N[*:1])[*:2]; DOTA = O=C(O)CN1CCN(CC(=O)O)CCN(CC(=O)*)CCN(CC(=O)O)CC1; 2Nal = N[C@@H](Cc1ccc2ccccc2c1)C(=O)O; tBuAla = CC(C)(C)C[C@H](N)C(=O)O; Chg = N[C@H](C(=O)O)C1CCCCC1; αMeP = C[C@@]1(C(=O)O)CCCN1; ξN = NC(=O)CC(N)C(=O)O; CH2 = C([*:1])[*:2]
# Biological target: T1, DLL3 (Homo sapiens, UniProt Q9NYJ7)
# T1 sequence (Q9NYJ7 27-618): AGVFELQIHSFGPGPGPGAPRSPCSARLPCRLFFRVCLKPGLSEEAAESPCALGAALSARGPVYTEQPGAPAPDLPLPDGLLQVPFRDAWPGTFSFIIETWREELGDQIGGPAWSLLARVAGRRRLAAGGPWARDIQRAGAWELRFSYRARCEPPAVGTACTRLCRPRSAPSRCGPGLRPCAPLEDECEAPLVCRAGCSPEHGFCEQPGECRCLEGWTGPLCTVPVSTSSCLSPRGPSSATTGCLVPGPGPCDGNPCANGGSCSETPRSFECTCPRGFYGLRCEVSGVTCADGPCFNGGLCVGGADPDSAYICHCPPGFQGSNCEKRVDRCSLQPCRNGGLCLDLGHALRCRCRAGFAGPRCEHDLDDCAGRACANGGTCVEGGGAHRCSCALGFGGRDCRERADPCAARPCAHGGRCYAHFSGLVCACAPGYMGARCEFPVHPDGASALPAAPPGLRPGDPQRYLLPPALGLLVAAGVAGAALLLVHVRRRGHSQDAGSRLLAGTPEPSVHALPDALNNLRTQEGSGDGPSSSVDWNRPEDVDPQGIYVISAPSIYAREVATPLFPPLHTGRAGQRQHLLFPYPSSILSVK
# Assay: SPR KD, biotinylated human DLL3 on streptavidin chip (Table 8)
# Parameters: biotin (biotinylated)
# Details: biotinylated human DLL3 on streptavidin sensor chip, 25° C., 1:1 binding model; read-out: SPR KD
# Text: Biotinylated target ligand human DLL3 was immobilized on a streptavidin sensor chip. A reference surface was set up for nonspecific binding and refractive index changes. […] Sensorgram curves were fitted with 1:1 binding model, and affinity and kinetic parameters were obtained using Biacore Insight evaluation 4.0. software.
row,Structure (SMILES),Kd
1,"CC(=O)N[C@@H](Cc1c[nH]c2ccccc12)C(=O)N[C@H](C(=O)N[C@H](C(=O)N[C@H]1CSCSC[C@@H](C(=O)N[C@@H](Cc2c[nH]c3ccccc23)C(=O)N2CCC[C@H]2C(N)=O)NC(=O)[C@H](CC(=O)O)NC(=O)[C@H](CCCCNC(=O)CC2CCC(NC(=O)CN3CCN(CC(=O)O)CCN(CC(=O)O)CCN(CC(=O)O)CC3)CC2)NC(=O)[C@H](Cc2ccc3ccccc3c2)NC(=O)C(CC(N)=O)NC(=O)[C@H](CC2CCNCC2)NC1=O)C1CCCCC1)[C@@H](C)O (stereo partly drawn) [compound 432, Ac-W-T-(Chg)-C(1)-[3-(4-piperidinyl)-Ala]-N-(2Nal)-Lys(Chx-DOTA)-D-C(1)-W-P-CONH2] (Ac-WT[Chg]C[Ala(piperidin-4-yl)][ξN][2Nal]K(X10)DCWP-NH2; linker 4-10 via CH2)",< 1 nM
2,"CC(=O)N[C@@H](Cc1c[nH]c2ccccc12)C(=O)N[C@H](C(=O)N[C@@H](CC(C)(C)C)C(=O)N[C@H]1CSCSC[C@@H](C(=O)N[C@@H](Cc2c[nH]c3ccccc23)C(=O)N2CCC[C@H]2C(N)=O)NC(=O)[C@H](CC(=O)O)NC(=O)[C@H](CCCCNC(=O)C[C@H]2CC[C@H](NC(=O)CN3CCN(CC(=O)O)CCN(CC(=O)O)CCN(CC(=O)O)CC3)CC2)NC(=O)[C@H](Cc2ccc3ccccc3c2)NC(=O)[C@H](CC(N)=O)NC(=O)[C@H](CC2CCNCC2)NC1=O)[C@@H](C)O [compound 434, Ac-W-T-(t-Bu-Ala)-C(3)-[3-(4-piperidinyl)-Ala]-N-(2Nal)-Lys(Chx-DOTA)-D-C(3)-W-P-NH2] (Ac-WT[tBuAla]C[Ala(piperidin-4-yl)]N[2Nal]K(X7)DCWP-NH2; linker 4-10 via CH2)",< 1 nM

# Next, values leading:
row,Kd,Structure (SMILES)
1,< 1 nM,"CC(=O)N[C@@H](Cc1c[nH]c2ccccc12)C(=O)N[C@H](C(=O)N[C@@H](CC(C)(C)C)C(=O)N[C@H]1CSCSC[C@@H](C(=O)N[C@@H](Cc2c[nH]c3ccccc23)C(=O)N2CCC[C@@]2(C)C(=O)O)NC(=O)[C@H](CC(=O)O)NC(=O)[C@H](CCCCNC(=O)CN2CCN(CC(=O)O)CCN(CC(=O)O)CCN(CC(=O)O)CC2)NC(=O)[C@H](Cc2ccc3ccccc3c2)NC(=O)[C@H](CC(N)=O)NC(=O)[C@H](CC2CCNCC2)NC1=O)[C@@H](C)O [compound 436, Ac-W-T-(t-Bu-Ala)-C(1)-[3-(4-piperidinyl)-Ala]-N-(2Nal)-Lys(DOTA)-D-C(1)-W-(aMe-P)-COOH] (Ac-WT[tBuAla]C[Ala(piperidin-4-yl)]N[2Nal]K(DOTA)DCW[αMeP]-OH; linker 4-10 via CH2)"
2,< 1 nM,"CC(=O)NCCCC[C@@H](NC(=O)[C@@H]1CCCN1C(=O)[C@H](Cc1c[nH]c2ccccc12)NC(=O)[C@@H]1CSCSC[C@H](NC(=O)[C@H](CC(C)(C)C)NC(=O)[C@@H](NC(=O)[C@H](Cc2c[nH]c3ccccc23)NC(C)=O)[C@@H](C)O)C(=O)N[C@@H](CC2CCNCC2)C(=O)N[C@@H](CC(N)=O)C(=O)N[C@@H](Cc2ccc3ccccc3c2)C(=O)N[C@@H](CCCCNC(=O)CN2CCN(CC(=O)O)CCN(CC(=O)O)CCN(CC(=O)O)CC2)C(=O)N[C@@H](CC(=O)O)C(=O)N1)C(N)=O [compound 438, Ac-W-T-(t-Bu-Ala)-C(1)-[3-(4-piperidinyl)-Ala]-N-(2Nal)-Lys(DOTA)-D-C(1)-W-P-[D-Lys(Ac)]-CONH2] (Ac-WT[tBuAla]C[Ala(piperidin-4-yl)]N[2Nal]K(DOTA)DCWP[dK](Ac)-NH2; linker 4-10 via CH2)"
3,< 1 nM,"CC(=O)NCCCC[C@@H](NC(=O)[C@@H]1CCCN1C(=O)[C@H](Cc1c[nH]c2ccccc12)NC(=O)[C@@H]1CSCSC[C@H](NC(=O)[C@H](CC(C)(C)C)NC(=O)[C@@H](NC(=O)[C@H](Cc2c[nH]c3ccccc23)NC(C)=O)[C@@H](C)O)C(=O)N[C@@H](CC2CCNCC2)C(=O)N[C@@H](CC(N)=O)C(=O)N[C@@H](Cc2ccc3ccccc3c2)C(=O)N[C@@H](CCCCNC(=O)CN2CCN(CC(=O)O)CCN(CC(=O)O)CCN(CC(=O)O)CC2)C(=O)N[C@@H](CC(=O)O)C(=O)N1)C(=O)O [compound 439, Ac-W-T-(t-Bu-Ala)-C(1)-[3-(4-piperidinyl)-Ala]-N-(2Nal)-Lys(DOTA)-D-C(1)-W-P-[D-Lys(Ac)]-COOH] (Ac-WT[tBuAla]C[Ala(piperidin-4-yl)]N[2Nal]K(DOTA)DCWP[dK](Ac)-OH; linker 4-10 via CH2)"
